Measurements: publication PMC4503722, “Novel Phenotypic Outcomes Identified for a Public Collection of Approved Drugs from a Publicly Accessible Panel of Assays” (PLoS ONE, 2015)
Read-outs that look alike come from different tables or passages of the source.

Experiments:
Assay in all cases: cells
Type in all cases: cell-based
DLD-1 = conditions: for IC50: read-out: Basal_Viability ATP DLD-1 summarized IC50
Colo320 = conditions: for IC50: read-out: Basal_Viability ATP Colo 320 summarized IC50
SW480 = conditions: for IC50: read-out: Basal_Viability ATP SW480 summarized IC50
SNU-C1 = conditions: for IC50: read-out: Basal_Viability ATP SNU-C1 summarized IC50
HT-29 = conditions: for IC50: read-out: Basal_Viability ATP HT-29 summarized IC50
HCT116 = conditions: for IC50: read-out: Basal_Viability ATP HCT116 summarized IC50
RKO = conditions: for IC50: read-out: Basal_Viability ATP RKO summarized IC50
[1] = system: HCT116 cells treated with a GSK3β inhibitor; conditions: for IC50: read-out: GSK3b inh pretreated_Viability ATP HCT116 summarized IC50
HeLa cells = system: HeLa cells;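 as to Hela CellCycMod PI 4N summarized IC50: value tracks stimulation of 4N DNA content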
[2] = assay number 26, GSK3b inhibitor pretreated
[3] = assay number 14, 2N, read-out: Hela CellCycMod PI 2N summarized IC50
[4] = assay number 15, S phase, read-out: Hela CellCycMod PI S Phase summarized IC50
[5] = assay number 16, 4N, read-out: Hela CellCycMod PI 4N summarized IC50
[6] = assay number 17, MI, read-out: Hela CellCycMod PI MI summarized IC50
[7] = assay number 18, cell number, read-out: Hela CellCycMod PI Cell Number summarized IC50

`CN1CCC(=C2c3ccccc3C=Cc3ccccc32)CC1` [NCGC00015252-12] was tested, and the “Basal_Viability ATP DLD-1 IC50/EC50” value (DLD-1; assay number 23, basal) was > 20 µM, the “Basal_Viability ATP Colo 320 IC50/EC50” value (Colo320; assay number 27, basal) was > 20 µM and the “Basal_Viability ATP SW480 IC50/EC50” value (SW480; assay number 24, basal) was 5.9167 µM. The “Basal_Viability ATP SNU-C1 IC50/EC50” value (SNU-C1; assay number 30, basal) was 10.7827 µM, the “Basal_Viability ATP HT-29 IC50/EC50” value (HT-29; assay number 28, basal) was > 20 µM and the “Basal_Viability ATP HCT116 IC50/EC50” value (HCT116; assay number 25, basal) was > 20 µM. For the same compound, the “Basal_Viability ATP RKO IC50/EC50” value (RKO; assay number 29, basal) was 11.2853 µM and the “GSK3b inh pretreated_Viability ATP HCT116 IC50/EC50” value [1, 2] was > 20 µM.

For `O=C(O)CN(CCN(CC(=O)O)CC(=O)O)CCN(CC(=O)O)CC(=O)O` [NCGC00015360-08], the IC50 (DLD-1; assay number 23, basal) was > 20 µM, the IC50 (Colo320; assay number 27, basal) was > 20 µM and the IC50 (SW480; assay number 24, basal) was 3.14 µM. The IC50 (SNU-C1; assay number 30, basal) was > 20 µM, the IC50 (HT-29; assay number 28, basal) was > 20 µM and the IC50 (HCT116; assay number 25, basal) was > 6.67 µM. For the same compound, the IC50 (RKO; assay number 29, basal) was 2.96 µM, the IC50 [1, 2] was 0.896 µM and the IC50 (HeLa cells; [3]) was > 10 µM. For the same compound, the IC50 (HeLa cells; [4]) was > 10 µM, the IC50 (HeLa cells; [5]) was > 10 µM and the IC50 (HeLa cells; [6]) was > 10 µM. For the same compound, the IC50 (HeLa cells; [7]) was > 10 µM.

`Nc1ccc(C(=O)Nc2ccccc2N)cc1` [NCGC00160373-02] was tested, and the “IC50/EC50, Basal_Viability ATP DLD-1 (assay number 23)” value (DLD-1; basal) was > 20 µM, the “IC50/EC50, Basal_Viability ATP Colo 320 (assay number 27)” value (Colo320; basal) was > 20 µM and the “IC50/EC50, Basal_Viability ATP SW480 (assay number 24)” value (SW480; basal) was > 20 µM. The “IC50/EC50, Basal_Viability ATP SNU-C1 (assay number 30)” value (SNU-C1; basal) was > 20 µM, the “IC50/EC50, Basal_Viability ATP HT-29 (assay number 28)” value (HT-29; basal) was > 20 µM and the “IC50/EC50, Basal_Viability ATP HCT116 (assay number 25)” value (HCT116; basal) was > 6.6667 µM. For the same compound, the “IC50/EC50, Basal_Viability ATP RKO (assay number 29)” value (RKO; basal) was > 20 µM and the “IC50/EC50, GSK3b inh pretreated_Viability ATP HCT116 (assay number 26)” value ([1]; GSK3b inh pretreated) was 12.8536 µM.

In the case of `O=C(c1cc(O)c(O)c(O)c1)c1ccc(O)c(O)c1O` [NCGC00249050-02], the “Basal_Viability ATP DLD-1 IC50/EC50” value (DLD-1) is reported as 11.8874 µM, the “Basal_Viability ATP Colo 320 IC50/EC50” value (Colo320) is reported as 9.382 µM and the “Basal_Viability ATP SW480 IC50/EC50” value (SW480) is reported as 9.9516 µM. For the same compound, the “Basal_Viability ATP SNU-C1 IC50/EC50” value (SNU-C1) was 12.767 µM, the “Basal_Viability ATP HT-29 IC50/EC50” value (HT-29) was 9.4494 µM and the “Basal_Viability ATP HCT116 IC50/EC50” value (HCT116) was 16.3036 µM. The “Basal_Viability ATP RKO IC50/EC50” value (RKO) was 0.1924 µM, the “GSK3b inh pretreated_Viability ATP HCT116 IC50/EC50” value [1] was 0.06911 µM and the “Hela CellCycMod PI 2N IC50/EC50” value (HeLa cells) was > 10 µM. For the same compound, the “Hela CellCycMod PI 4N IC50/EC50” value (HeLa cells) was > 10 µM, the “Hela CellCycMod PI Cell Number IC50/EC50” value (HeLa cells) was > 10 µM and the “Hela CellCycMod PI MI IC50/EC50” value (HeLa cells) was > 10 µM. For the same compound, the “Hela CellCycMod PI S Phase IC50/EC50” value (HeLa cells) was > 10 µM.

`CCCCOC(=O)c1ccc(N)cc1` [NCGC00016353-08] was tested, and the IC50 (DLD-1; assay number 23, basal) was 4.56 µM, the IC50 (Colo320; assay number 27, basal) was > 20 µM and the IC50 (SW480; assay number 24, basal) was 0.586 µM. For the same compound, the IC50 (SNU-C1; assay number 30, basal) was > 20 µM, the IC50 (HT-29; assay number 28, basal) was > 20 µM and the IC50 (HCT116; assay number 25, basal) was > 20 µM. For the same compound, the IC50 (RKO; assay number 29, basal) was 0.137 µM, the IC50 [1, 2] was 5.61 µM and the IC50 (HeLa cells; [3]) was > 10 µM. The IC50 (HeLa cells; [4]) was > 10 µM, the IC50 (HeLa cells; [5]) was > 10 µM and the IC50 (HeLa cells; [6]) was > 10 µM. For the same compound, the IC50 (HeLa cells; [7]) was > 10 µM.

In the case of `CCCCCCCCCCCCCCCCOP(=O)([O-])OCC[N+](C)(C)C` [NCGC00095169-05], the “Basal_Viability ATP DLD-1 IC50/EC50” value (DLD-1; assay number 23, basal) is reported as 1.23 µM, the “Basal_Viability ATP Colo 320 IC50/EC50” value (Colo320; assay number 27, basal) is reported as 1.49 µM and the “Basal_Viability ATP SW480 IC50/EC50” value (SW480; assay number 24, basal) is reported as 0.4782 µM. The “Basal_Viability ATP SNU-C1 IC50/EC50” value (SNU-C1; assay number 30, basal) was 0.9649 µM, the “Basal_Viability ATP HT-29 IC50/EC50” value (HT-29; assay number 28, basal) was 1.955 µM and the “Basal_Viability ATP HCT116 IC50/EC50” value (HCT116; assay number 25, basal) was 3.393 µM. The “Basal_Viability ATP RKO IC50/EC50” value (RKO; assay number 29, basal) was 0.4372 µM and the “GSK3b inh pretreated_Viability ATP HCT116 IC50/EC50” value [1, 2] was 1.476 µM.

For `Cl.O=C1[C@H]2CCCC[C@H]2C(=O)N1CCCCN1CCN(c2nsc3ccccc23)CC1` [NCGC00164567-02], the “Basal_Viability ATP DLD-1 IC50/EC50” value (DLD-1; assay number 23) was 8.238 µM, the “Basal_Viability ATP Colo 320 IC50/EC50” value (Colo320; assay number 27) was 13.2075 µM and the “Basal_Viability ATP SW480 IC50/EC50” value (SW480; assay number 24) was 5.9082 µM. The “Basal_Viability ATP SNU-C1 IC50/EC50” value (SNU-C1; assay number 30) was 9.3713 µM, the “Basal_Viability ATP HT-29 IC50/EC50” value (HT-29; assay number 28) was 2.0058 µM and the “Basal_Viability ATP HCT116 IC50/EC50” value (HCT116; assay number 25, basal) was 2.0649 µM. For the same compound, the “Basal_Viability ATP RKO IC50/EC50” value (RKO; assay number 29) was 0.5459 µM, the “GSK3b inh pretreated_Viability ATP HCT116 IC50/EC50” value [1, 2] was 1.6729 µM and the “Hela CellCycMod PI 2N IC50/EC50” value (HeLa cells; assay number 14, 2N) was > 10 µM. For the same compound, the “Hela CellCycMod PI S Phase IC50/EC50” value (HeLa cells; assay number 15, S phase) was > 10 µM, the “Hela CellCycMod PI 4N IC50/EC50” value (HeLa cells; assay number 16, 4N) was > 10 µM and the “Hela CellCycMod PI MI IC50/EC50” value (HeLa cells; assay number 17, MI) was > 10 µM. For the same compound, the “Hela CellCycMod PI Cell Number IC50/EC50” value (HeLa cells; assay number 18, cell number) was > 10 µM.

For `CN(C)[C@@H](CCOc1cccc2ccccc12)c1ccccc1` [NCGC00253658-01], the “Basal_Viability ATP DLD-1 IC50/EC50” value (DLD-1; assay number 23) was > 20 µM, the “Basal_Viability ATP Colo 320 IC50/EC50” value (Colo320; assay number 27) was > 20 µM and the “Basal_Viability ATP SW480 IC50/EC50” value (SW480; assay number 24) was > 20 µM. For the same compound, the “Basal_Viability ATP SNU-C1 IC50/EC50” value (SNU-C1; assay number 30) was 12.8035 µM, the “Basal_Viability ATP HT-29 IC50/EC50” value (HT-29; assay number 28) was > 20 µM and the “Basal_Viability ATP HCT116 IC50/EC50” value (HCT116; assay number 25, basal) was > 20 µM. For the same compound, the “Basal_Viability ATP RKO IC50/EC50” value (RKO; assay number 29) was 8.1098 µM and the “GSK3b inh pretreated_Viability ATP HCT116 IC50/EC50” value [1, 2] was 9.8615 µM.

For `CCC(=O)c1ccc(O)cc1` [NCGC00018097-06], the IC50 (DLD-1; assay number 23, basal) was 6.67 µM, the IC50 (Colo320; assay number 27, basal) was > 20 µM and the IC50 (SW480; assay number 24, basal) was 4.1 µM. The IC50 (SNU-C1; assay number 30, basal) was > 20 µM, the IC50 (HT-29; assay number 28, basal) was > 20 µM and the IC50 (HCT116; assay number 25, basal) was > 20 µM. The IC50 (RKO; assay number 29, basal) was 7.8 µM, the IC50 [1, 2] was 6.25 µM and the IC50 (HeLa cells; [3]) was > 10 µM. For the same compound, the IC50 (HeLa cells; [4]) was > 10 µM, the IC50 (HeLa cells; [5]) was > 10 µM and the IC50 (HeLa cells; [6]) was > 10 µM. For the same compound, the IC50 (HeLa cells; [7]) was > 10 µM.
